Laboratory results from PMC10682951, “Structure-function and rational design of a spider toxin Ssp1a at human voltage-gated sodium channel subtypes” (Frontiers in Pharmacology, 2023).
Bridge positions count the residues as written; N and C are the ends. Peptide text beside a SMILES is read from it.

Columns and labels:
Assay type in all cases: cell-based
hNaV1.2 = molecular target: T1, hNaV1.2 (Homo sapiens, UniProt Q99250); assay: Automated whole-cell patch-clamp (QPatch 16X), hNaV1.2; conditions: for IC50: HEK293 cells expressing hNaV1.2 + β1 subunit, QPatch 16X, holding −80 mV, step to 0 mV, peptide incubated 2 min, 0.1% BSA, mean, SEM and n (2-7); for Loss (reduction) in potency vs rSsp1a at hNaV1.2: relative to wild type rSsp1a
T1 construct: host or cells: HEK293
T1 sequence (Q07699 19-218): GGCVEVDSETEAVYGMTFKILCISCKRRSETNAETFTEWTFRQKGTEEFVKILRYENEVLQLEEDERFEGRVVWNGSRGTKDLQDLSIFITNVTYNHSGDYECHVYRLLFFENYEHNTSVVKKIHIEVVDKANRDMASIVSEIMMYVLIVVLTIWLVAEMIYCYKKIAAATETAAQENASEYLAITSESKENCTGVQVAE
T1 sequence (Q99250 whole entry): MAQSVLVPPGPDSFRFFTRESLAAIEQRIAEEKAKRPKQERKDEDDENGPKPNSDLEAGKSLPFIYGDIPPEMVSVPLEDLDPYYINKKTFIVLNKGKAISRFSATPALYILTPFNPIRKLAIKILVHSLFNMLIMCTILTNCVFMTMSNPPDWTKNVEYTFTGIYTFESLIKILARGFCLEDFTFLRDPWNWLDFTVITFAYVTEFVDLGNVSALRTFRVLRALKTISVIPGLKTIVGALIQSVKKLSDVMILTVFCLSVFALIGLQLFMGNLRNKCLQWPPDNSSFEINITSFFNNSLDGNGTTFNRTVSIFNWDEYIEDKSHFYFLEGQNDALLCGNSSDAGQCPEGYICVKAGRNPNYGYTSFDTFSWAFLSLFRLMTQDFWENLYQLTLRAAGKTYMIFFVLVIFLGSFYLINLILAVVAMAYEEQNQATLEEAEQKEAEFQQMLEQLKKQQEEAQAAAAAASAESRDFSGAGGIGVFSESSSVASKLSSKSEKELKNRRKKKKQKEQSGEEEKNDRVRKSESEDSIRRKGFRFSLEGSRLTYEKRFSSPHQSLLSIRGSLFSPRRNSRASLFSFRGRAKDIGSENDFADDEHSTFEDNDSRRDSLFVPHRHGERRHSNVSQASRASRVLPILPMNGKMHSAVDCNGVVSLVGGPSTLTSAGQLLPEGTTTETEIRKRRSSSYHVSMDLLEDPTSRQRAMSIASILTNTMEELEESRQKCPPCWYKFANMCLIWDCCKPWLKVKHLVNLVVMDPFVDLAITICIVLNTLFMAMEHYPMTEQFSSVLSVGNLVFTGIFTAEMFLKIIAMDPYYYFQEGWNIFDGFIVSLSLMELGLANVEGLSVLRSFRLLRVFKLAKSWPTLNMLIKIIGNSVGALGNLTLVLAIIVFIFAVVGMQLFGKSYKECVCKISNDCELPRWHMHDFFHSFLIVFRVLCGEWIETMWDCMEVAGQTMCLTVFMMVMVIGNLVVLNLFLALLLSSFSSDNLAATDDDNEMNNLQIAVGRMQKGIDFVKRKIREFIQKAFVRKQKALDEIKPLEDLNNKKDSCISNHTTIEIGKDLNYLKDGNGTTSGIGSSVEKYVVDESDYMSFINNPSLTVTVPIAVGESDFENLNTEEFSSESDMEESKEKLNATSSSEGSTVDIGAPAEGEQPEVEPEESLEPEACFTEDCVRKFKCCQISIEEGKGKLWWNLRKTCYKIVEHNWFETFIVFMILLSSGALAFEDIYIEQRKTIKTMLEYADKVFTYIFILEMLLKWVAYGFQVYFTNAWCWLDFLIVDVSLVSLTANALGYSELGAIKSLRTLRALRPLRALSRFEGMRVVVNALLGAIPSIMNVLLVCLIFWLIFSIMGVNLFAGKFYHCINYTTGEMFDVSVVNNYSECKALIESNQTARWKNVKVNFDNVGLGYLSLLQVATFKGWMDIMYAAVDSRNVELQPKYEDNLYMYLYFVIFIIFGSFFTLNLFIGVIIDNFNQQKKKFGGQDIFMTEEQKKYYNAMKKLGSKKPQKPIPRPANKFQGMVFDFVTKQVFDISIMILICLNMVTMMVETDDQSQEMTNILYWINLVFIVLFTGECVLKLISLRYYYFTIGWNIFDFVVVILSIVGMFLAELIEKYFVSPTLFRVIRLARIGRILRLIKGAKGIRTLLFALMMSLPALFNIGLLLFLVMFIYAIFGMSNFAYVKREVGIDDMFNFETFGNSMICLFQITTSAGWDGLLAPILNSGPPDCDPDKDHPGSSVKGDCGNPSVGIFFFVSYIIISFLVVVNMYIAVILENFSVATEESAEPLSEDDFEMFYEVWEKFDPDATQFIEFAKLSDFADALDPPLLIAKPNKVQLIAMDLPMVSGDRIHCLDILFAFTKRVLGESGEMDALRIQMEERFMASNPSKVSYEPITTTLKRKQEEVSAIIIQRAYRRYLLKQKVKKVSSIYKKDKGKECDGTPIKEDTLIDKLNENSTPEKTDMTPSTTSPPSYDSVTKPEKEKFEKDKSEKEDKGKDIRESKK
Procedure: (§1) Human embryonic kidney 293 (HEK293) cells stably expressing recombinant hNaV1.2, hNaV1.3 and hNaV1.7 and the β1 auxiliary subunit (Scottish Biomedical Drug Discovery, Glasgow, UK) were cultured in Minimal Essential medium (MEM) (Sigma-Aldrich, MO, United States) supplemented with 10% v/v FBS-New Zealand origin (Assay Matrix), 2 mM L-glutamine and selection antibiotics as per manufacturer’s recommendation. The HEK293 cells heterologously expressing mNaV1.7 and F813G-mNaV1.7 were generously provided by Prof Irina Vetter and were cultured in Minimal Essential medium (MEM) (Sigma-Aldrich, MO, United States) supplemented with 10% v/v FBS-New Zealand origin (Assay Matrix), 2 mM L-glutamine and hygromycin 100 μg/mL.
(§2) NaV channel currents from HEK293 cells stably expressing NaV subtypes and the β1 auxiliary subunit were recorded using an automated whole-cell patch clamp system QPatch 16X (Sophion Bioscience A/S, Ballerup, Denmark). As per the manufacturer’s guidelines, the cells were cultured for 48 h to achieve ∼80% confluency, detached using Detachin (Genlantis) and resuspended to 5 × 10^6 cells/mL in serum free media [CHO-cell SFM (Life Technologies), 25 mM HEPES and 100 U/mL penicillin/streptomycin]. The extracellular solution comprised (in mM) 1 CaCl2, 1 MgCl2, 5 HEPES, 3 KCl, 140 NaCl and 20 TEA-Cl, with the pH adjusted to 7.3 with NaOH. The intracellular solution comprised (in mM) 140 CsF, 1 EGTA, 5 CsOH, 10 HEPES and 10 NaCl, with the pH adjusted to 7.3 with CsOH. The osmolarity of both solutions were adjusted to 320 mOsm with sucrose. Compounds were prepared in extracellular solution containing 0.1% bovine serum albumin (Sigma-Aldrich). To obtain the dose-response curves, cells were maintained at a holding potential −80 mV and Na^+ currents were elicited by […] voltage steps to 0 mV from a −120 mV conditioning pulse applied for […]. Increasing concentrations of the peptide were incubated with the cells at the holding potential for 2 min before the voltage protocol was applied.
(§3) The experimental data were analysed using QPatch Assay software v5.6.4 and GraphPad Prism 7.0 using a four-parameter Hill equation [Y = Bottom + (Top—Bottom)/(1 + 10^(Log IC50—X)* Hillslope)] to fit concentration response curves by non-linear regression analysis and Student’s t-test. Data are presented as means ± standard error of mean (SEM) with number of independent experiments stated and p < 0.05 is considered statistically significant. Statistically insignificant shift in the activity is denoted by “little” while small but statistically significant shift in the activity is denoted by “slight” throughout the manuscript.

hNaV1.3 = molecular target: T2, hNaV1.3 (Homo sapiens, UniProt Q9NY46); assay: Automated whole-cell patch-clamp (QPatch 16X), hNaV1.3; conditions: for IC50: HEK293 cells expressing hNaV1.3 + β1 subunit, QPatch 16X, holding −80 mV, step to 0 mV, peptide incubated 2 min, 0.1% BSA, mean, SEM and n (3-12)
T2 construct: host or cells: HEK293
T2 sequence (Q9NY46 whole entry): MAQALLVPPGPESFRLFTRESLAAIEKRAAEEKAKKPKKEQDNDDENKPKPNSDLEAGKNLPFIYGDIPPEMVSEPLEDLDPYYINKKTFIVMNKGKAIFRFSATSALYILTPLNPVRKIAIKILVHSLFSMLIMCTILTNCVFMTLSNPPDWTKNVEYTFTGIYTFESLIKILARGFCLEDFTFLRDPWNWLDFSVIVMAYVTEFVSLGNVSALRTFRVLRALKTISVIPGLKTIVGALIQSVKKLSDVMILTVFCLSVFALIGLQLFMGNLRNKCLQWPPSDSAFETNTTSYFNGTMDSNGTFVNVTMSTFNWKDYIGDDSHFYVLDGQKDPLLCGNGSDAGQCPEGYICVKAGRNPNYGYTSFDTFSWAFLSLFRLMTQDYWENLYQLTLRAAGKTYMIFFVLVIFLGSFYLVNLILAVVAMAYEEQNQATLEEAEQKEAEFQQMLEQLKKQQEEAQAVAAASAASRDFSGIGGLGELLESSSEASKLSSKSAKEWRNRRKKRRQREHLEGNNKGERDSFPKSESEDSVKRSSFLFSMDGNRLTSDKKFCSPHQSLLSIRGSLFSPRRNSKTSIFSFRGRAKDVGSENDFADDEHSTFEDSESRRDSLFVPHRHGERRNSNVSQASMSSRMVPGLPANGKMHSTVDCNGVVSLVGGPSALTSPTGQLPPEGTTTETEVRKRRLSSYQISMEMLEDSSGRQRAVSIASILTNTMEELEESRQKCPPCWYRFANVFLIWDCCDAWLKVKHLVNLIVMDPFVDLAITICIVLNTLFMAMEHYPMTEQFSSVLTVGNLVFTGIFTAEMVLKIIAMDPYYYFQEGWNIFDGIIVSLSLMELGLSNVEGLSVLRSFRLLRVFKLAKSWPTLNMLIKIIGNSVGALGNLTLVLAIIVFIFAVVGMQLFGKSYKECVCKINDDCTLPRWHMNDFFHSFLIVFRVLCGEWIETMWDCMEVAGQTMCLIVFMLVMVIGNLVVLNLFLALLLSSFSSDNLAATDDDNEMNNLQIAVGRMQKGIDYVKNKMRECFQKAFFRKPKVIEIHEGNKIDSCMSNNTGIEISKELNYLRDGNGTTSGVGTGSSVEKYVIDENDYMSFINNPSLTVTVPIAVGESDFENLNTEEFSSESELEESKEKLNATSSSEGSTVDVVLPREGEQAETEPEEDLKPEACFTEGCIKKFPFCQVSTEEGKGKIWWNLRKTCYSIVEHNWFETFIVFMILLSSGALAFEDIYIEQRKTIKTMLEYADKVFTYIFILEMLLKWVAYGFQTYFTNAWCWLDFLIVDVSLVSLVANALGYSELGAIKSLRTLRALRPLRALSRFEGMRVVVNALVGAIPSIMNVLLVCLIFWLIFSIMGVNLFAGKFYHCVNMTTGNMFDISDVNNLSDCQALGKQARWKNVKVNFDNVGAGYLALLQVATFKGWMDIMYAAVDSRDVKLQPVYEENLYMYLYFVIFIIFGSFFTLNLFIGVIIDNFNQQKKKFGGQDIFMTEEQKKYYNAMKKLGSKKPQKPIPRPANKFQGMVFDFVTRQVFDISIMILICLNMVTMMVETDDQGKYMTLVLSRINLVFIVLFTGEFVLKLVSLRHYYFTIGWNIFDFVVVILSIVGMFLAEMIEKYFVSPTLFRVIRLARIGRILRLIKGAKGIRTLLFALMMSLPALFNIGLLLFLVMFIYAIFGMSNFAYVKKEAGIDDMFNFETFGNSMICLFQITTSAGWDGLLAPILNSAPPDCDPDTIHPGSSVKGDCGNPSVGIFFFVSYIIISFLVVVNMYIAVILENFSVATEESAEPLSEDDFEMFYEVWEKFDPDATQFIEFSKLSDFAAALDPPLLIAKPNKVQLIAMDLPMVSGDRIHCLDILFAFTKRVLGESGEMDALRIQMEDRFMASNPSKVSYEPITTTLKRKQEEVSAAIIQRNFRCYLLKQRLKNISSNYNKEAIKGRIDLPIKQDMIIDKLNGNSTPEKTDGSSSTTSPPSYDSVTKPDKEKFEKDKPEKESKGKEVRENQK
T2 sequence (Q07699 19-218, further chain): as the sequence (Q07699 19-218) above
Procedure: as §1, §2, §3

hNaV1.7 = molecular target: T3, hNaV1.7 (Homo sapiens, UniProt Q15858); assay: Automated whole-cell patch-clamp (QPatch 16X), hNaV1.7; conditions: for IC50: HEK293 cells expressing hNaV1.7 + β1 subunit, QPatch 16X, holding −80 mV, step to 0 mV, peptide incubated 2 min, 0.1% BSA, mean, SEM and n (3-9); for Loss (reduction) in potency vs rSsp1a at hNaV1.7: relative to wild type rSsp1a
T3 construct: host or cells: HEK293
Procedure: as §1, §2, §3

CC(C)C[C@H](NC(=O)[C@H](CC(=O)O)NC(=O)[C@H](Cc1ccc(O)cc1)NC(=O)[C@H](CCCNC(=N)N)NC(=O)[C@@H]1CSSC[C@@H]2NC(=O)[C@H](CCCCN)NC(=O)[C@H](CC(N)=O)NC(=O)[C@H](CC(N)=O)NC(=O)[C@H](CC(N)=O)NC(=O)[C@@H]3CCCN3C(=O)[C@H](CC(=O)O)NC(=O)[C@@H]3CSSC[C@H](NC(=O)[C@H](C(C)C)NC(=O)[C@H](Cc4ccc(O)cc4)NC(=O)CNC(=O)[C@H](CCC(=O)O)NC(=O)[C@H](CSSC[C@H](NC(=O)[C@H](CC(=O)O)NC(=O)CN)C(=O)N[C@@H](CC(C)C)C(=O)NCC(=O)N[C@@H](Cc4c[nH]c5ccccc45)C(=O)N[C@@H](Cc4ccccc4)C(=O)N[C@@H](CO)C(=O)NCC(=O)N3)NC2=O)C(=O)N[C@@H](Cc2c[nH]cn2)C(=O)N[C@@H](Cc2c[nH]c3ccccc23)C(=O)N[C@@H](CCCCN)C(=O)N[C@@H](Cc2ccc(O)cc2)C(=O)N2CCC[C@H]2C(=O)N[C@@H](C)C(=O)N1)C(=O)O [W28A] (H-GDCLGWFSGCDPNNNKCCEGYVCHWKYPACRYDL-OH; disulfide 3-18, 10-23, 17-30 (inferred); N-terminus and C-terminus assumed)
IC50 (hNaV1.2): > 3000 nM | Loss (reduction) in potency vs rSsp1a at hNaV1.2 (hNaV1.2): ≥ 10 fold | IC50 (hNaV1.3): > 3000 nM | IC50 (hNaV1.7): > 3000 nM | Loss (reduction) in potency vs rSsp1a at hNaV1.7 (hNaV1.7): ≥ 10 fold

CC(C)C[C@H](NC(=O)[C@H](CC(=O)O)NC(=O)[C@H](Cc1c[nH]c2ccccc12)NC(=O)[C@H](CCCNC(=N)N)NC(=O)[C@@H]1CSSC[C@@H]2NC(=O)[C@H](CCCCN)NC(=O)[C@H](CC(N)=O)NC(=O)[C@H](CC(N)=O)NC(=O)[C@H](CC(N)=O)NC(=O)[C@@H]3CCCN3C(=O)[C@H](CC(=O)O)NC(=O)[C@@H]3CSSC[C@H](NC(=O)[C@H](C(C)C)NC(=O)[C@H](Cc4ccc(O)cc4)NC(=O)CNC(=O)[C@H](CCC(=O)O)NC(=O)[C@H](CSSC[C@H](NC(=O)[C@H](CC(=O)O)NC(=O)CN)C(=O)N[C@@H](CC(C)C)C(=O)NCC(=O)N[C@@H](Cc4c[nH]c5ccccc45)C(=O)N[C@@H](Cc4ccccc4)C(=O)N[C@@H](CO)C(=O)NCC(=O)N3)NC2=O)C(=O)N[C@@H](Cc2c[nH]cn2)C(=O)N[C@@H](Cc2c[nH]c3ccccc23)C(=O)N[C@@H](CCCCN)C(=O)N[C@@H](Cc2ccc(O)cc2)C(=O)N2CCC[C@H]2C(=O)N[C@@H](Cc2c[nH]c3ccccc23)C(=O)N1)C(=O)O [Y31W]
IC50 (hNaV1.2): 89 nM | IC50 (hNaV1.3): 160 nM | IC50 (hNaV1.7): 80 nM

CC(C)C[C@H](NC(=O)[C@H](Cc1ccc(O)cc1)NC(=O)[C@H](Cc1ccc(O)cc1)NC(=O)[C@H](CCCNC(=N)N)NC(=O)[C@@H]1CSSC[C@@H]2NC(=O)[C@H](CCCCN)NC(=O)[C@H](CC(N)=O)NC(=O)[C@H](CC(N)=O)NC(=O)[C@H](CC(N)=O)NC(=O)[C@@H]3CCCN3C(=O)[C@H](CC(=O)O)NC(=O)[C@@H]3CSSC[C@H](NC(=O)[C@H](C(C)C)NC(=O)[C@H](Cc4ccc(O)cc4)NC(=O)CNC(=O)[C@H](CCC(=O)O)NC(=O)[C@H](CSSC[C@H](NC(=O)CNC(=O)CN)C(=O)N[C@@H](CC(C)C)C(=O)NCC(=O)N[C@@H](Cc4c[nH]c5ccccc45)C(=O)N[C@@H](Cc4ccccc4)C(=O)N[C@@H](CO)C(=O)NCC(=O)N3)NC2=O)C(=O)N[C@@H](Cc2c[nH]cn2)C(=O)N[C@@H](Cc2c[nH]c3ccccc23)C(=O)N[C@@H](CCCCN)C(=O)N[C@@H](Cc2ccc(O)cc2)C(=O)N2CCC[C@H]2C(=O)N[C@@H](Cc2c[nH]c3ccccc23)C(=O)N1)C(=O)O [D1G/D32Y] (H-GGCLGWFSGCDPNNNKCCEGYVCHWKYPWCRYYL-OH; disulfide 3-18, 10-23, 17-30)
IC50 (hNaV1.2): 86 nM | IC50 (hNaV1.3): 111 nM | IC50 (hNaV1.7): 91 nM

CC(C)C[C@H](NC(=O)[C@H](CC(=O)O)NC(=O)[C@H](Cc1ccc(O)cc1)NC(=O)[C@H](CCCNC(=N)N)NC(=O)[C@@H]1CSSC[C@@H]2NC(=O)[C@H](CCCCN)NC(=O)[C@H](CC(=O)O)NC(=O)[C@H](CC(N)=O)NC(=O)[C@H](CC(N)=O)NC(=O)[C@@H]3CCCN3C(=O)[C@H](CC(=O)O)NC(=O)[C@@H]3CSSC[C@H](NC(=O)[C@H](C(C)C)NC(=O)[C@H](Cc4ccc(O)cc4)NC(=O)CNC(=O)[C@H](CCC(=O)O)NC(=O)[C@H](CSSC[C@H](NC(=O)[C@H](CC(=O)O)NC(=O)CN)C(=O)N[C@@H](CC(C)C)C(=O)NCC(=O)N[C@@H](Cc4c[nH]c5ccccc45)C(=O)N[C@@H](Cc4ccccc4)C(=O)N[C@@H](CO)C(=O)NCC(=O)N3)NC2=O)C(=O)N[C@@H](Cc2c[nH]cn2)C(=O)N[C@@H](Cc2c[nH]c3ccccc23)C(=O)N[C@@H](CCCCN)C(=O)N[C@@H](Cc2ccc(O)cc2)C(=O)N[C@@H](CCCNC(=N)N)C(=O)N[C@@H](Cc2c[nH]c3ccccc23)C(=O)N1)C(=O)O [N14D/P27R] (H-GDCLGWFSGCDPNNDKCCEGYVCHWKYRWCRYDL-OH; disulfide 3-18, 10-23, 17-30)
IC50 (hNaV1.2): 87 nM | inhibition at 3 µM (hNaV1.3; 3 µM peptide, QPatch, read-out: Inhibition (block) of hNaV1.3 at 3 µM): ~40% | IC50 (hNaV1.3): > 3000 nM | IC50 (hNaV1.7): 57 nM

CC(C)C[C@H](NC(=O)[C@H](CC(=O)O)NC(=O)[C@H](Cc1ccc(O)cc1)NC(=O)[C@H](CCCNC(=N)N)NC(=O)[C@@H]1CSSC[C@@H]2NC(=O)[C@H](CCCCN)NC(=O)[C@H](CC(N)=O)NC(=O)[C@H](CC(N)=O)NC(=O)[C@H](CC(N)=O)NC(=O)[C@@H]3CCCN3C(=O)[C@H](CC(=O)O)NC(=O)[C@@H]3CSSC[C@H](NC(=O)[C@H](C(C)C)NC(=O)[C@H](Cc4ccc(O)cc4)NC(=O)CNC(=O)[C@H](CCC(=O)O)NC(=O)[C@H](CSSC[C@H](NC(=O)[C@H](CC(=O)O)NC(=O)CN)C(=O)N[C@@H](CC(C)C)C(=O)NCC(=O)N[C@@H](C)C(=O)N[C@@H](Cc4ccccc4)C(=O)N[C@@H](CO)C(=O)NCC(=O)N3)NC2=O)C(=O)N[C@@H](Cc2c[nH]cn2)C(=O)N[C@@H](Cc2c[nH]c3ccccc23)C(=O)N[C@@H](CCCCN)C(=O)N[C@@H](Cc2ccc(O)cc2)C(=O)N2CCC[C@H]2C(=O)N[C@@H](Cc2c[nH]c3ccccc23)C(=O)N1)C(=O)O [W5A] (H-GDCLGAFSGCDPNNNKCCEGYVCHWKYPWCRYDL-OH; disulfide 3-18, 10-23, 17-30 (inferred); N-terminus and C-terminus assumed)
IC50 (hNaV1.2): > 1000 nM | Loss (reduction) in potency vs rSsp1a at hNaV1.2 (hNaV1.2): ≥ 10 fold | IC50 (hNaV1.3): > 1000 nM | IC50 (hNaV1.7): > 1000 nM | Loss (reduction) in potency vs rSsp1a at hNaV1.7 (hNaV1.7): ≥ 10 fold

CC(C)C[C@H](NC(=O)[C@H](CC(=O)O)NC(=O)[C@H](Cc1ccc(O)cc1)NC(=O)[C@H](CCCNC(=N)N)NC(=O)[C@@H]1CSSC[C@@H]2NC(=O)[C@H](CCCCN)NC(=O)[C@H](CC(N)=O)NC(=O)[C@H](CC(N)=O)NC(=O)[C@H](CC(N)=O)NC(=O)[C@@H]3CCCN3C(=O)[C@H](CC(=O)O)NC(=O)[C@@H]3CSSC[C@H](NC(=O)[C@H](C(C)C)NC(=O)[C@H](Cc4ccc(O)cc4)NC(=O)CNC(=O)[C@H](CCCCN)NC(=O)[C@H](CSSC[C@H](NC(=O)[C@H](CC(=O)O)NC(=O)CN)C(=O)N[C@@H](CC(C)C)C(=O)NCC(=O)N[C@@H](Cc4c[nH]c5ccccc45)C(=O)N[C@@H](Cc4ccccc4)C(=O)N[C@@H](CO)C(=O)NCC(=O)N3)NC2=O)C(=O)N[C@@H](Cc2c[nH]cn2)C(=O)N[C@@H](Cc2c[nH]c3ccccc23)C(=O)N[C@@H](CCCCN)C(=O)N[C@@H](Cc2ccc(O)cc2)C(=O)N2CCC[C@H]2C(=O)N[C@@H](Cc2c[nH]c3ccccc23)C(=O)N1)C(=O)O [E18K]
IC50 (hNaV1.2): 72 nM | IC50 (hNaV1.3): 313 nM | IC50 (hNaV1.7): 107 nM
